Experimental data as given in publication PMC11874007, “Switching Roles—Exploring Concentration-Dependent Agonistic versus Antagonistic Behavior of Integrin Ligands” (Journal of Medicinal Chemistry, 2025).
Values joined by “and” are separate entries in the source; they are usually repeats but may differ in a detail not shown here. Equal entries are not always repeated.

Tests used:
human αvβ6-integrin = biological target: T1, human αvβ6-integrin (Homo sapiens, UniProt P06756+P18564); experiment: ELISA-type solid-phase binding assay: soluble αvβ6 competing for immobilized LAP (TGF-β); conditions: competitive ELISA-type assay, referenced to internal standard RTDLDSLRT
T1 construct: purchased R&D 3817-AV-050

human α5β1-integrin = biological target: T2, human α5β1-integrin (Homo sapiens, UniProt P05556+P08648); experiment: ELISA-type solid-phase binding assay: soluble α5β1 competing for immobilized fibronectin; conditions: competitive ELISA-type assay, referenced to internal standard cilengitide (L2)
T2 construct: purchased R&D 3230-A5-050
Method: Prior to the biological evaluation of the ligands, their specificity and subtype-selective affinity was analyzed by an ELISA (enzyme-linked immune sorbent assay)-type solid-phase ligand binding assay[59] by measuring the competitive binding of soluble purified integrins in the presence of the respective ligands to plate-immobilized purified ECM proteins, as described in Experimental Section: vitronectin (for αvβ3-directed ligands), fibronectin (for α5β1-directed ligands), or the latency-associated peptide (LAP) of transforming growth factor-β (TGF-β) (for αvβ6-directed ligands). Then, we determined whether Cy5.5 conjugation of ligands led to altered ligand binding affinities and integrin subtype selectivity compared to the unlabeled compounds. In the following, we describe in detail the alterations detected.
(3) 2.0 μg/mL mouse-anti-human CD51/61 (BD Biosciences, Franklin Lakes, New Jersey, USA; #555504). (4) 2.0 μg/mL anti-mouse IgG-POD (Sigma-Aldrich, #A9044-2ML). Integrin αvβ6: (1) 0.4 μg/mL LAP (TGF-β) (R&D, #246-LP-025), (2) 0.5 μg/mL human αvβ6 (R&D, #3817-AV-050), (3) 1:500 dilution mouse-anti-human αv (MAB1978) (Merck Millipore, #MAB1978), (4) 2.0 μg/mL anti-mouse IgG-POD (Sigma-Aldrich, #A9044-2ML). Integrin α5β1: (1) 0.5 μg/mL human fibronectin (Sigma-Aldrich, #F0895-1MG), (2) 2.0 μg/mL human α5β1 (R&D, 3230-A5-050), (3) 1.0 μg/mL mouse-anti-human CD49e (BD Biosciences, #555651), (4) 2.0 μg/mL anti-mouse IgG-POD (Sigma-Aldrich, #A9044-2 ML). For Western blot analysis, the following antibodies were used: (p-)p44/42^(erk-1/2) (1) 1:300 dilution of rabbit-anti-human p44/42^(erk-1/2) antibody (Cell Signaling Technology, Frankfurt, Germany, #9102) in 3% (w/v) bovine serum albumin (BSA)/TBS-T, (2) 1:5,000 dilution goat-anti-rabbit horseradish-conjugated secondary antibody in 1% (w/v) BSA/TBS-T. Phospho-p44/42^(erk-1/2): (1) 1:200 dilution rabbit-anti-human p44/42^(erk-1/2) (Thr202/Tyr204) antibody (Cell Signaling Technology, #9101) in 3% (w/v) BSA/TBS-T, (2) 1:5,000 dilution goat-anti-rabbit horseradish-conjugated secondary antibody in 1% (w/v) BSA/TBS-T. FAK: (1) 1:300 dilution mouse-anti-human FAK antibody (Cell Signaling Technology, #9102) in 3% (w/v) BSA/TBS-T, (2) 1:5,000 dilution goat-anti-mouse horseradish-conjugated secondary antibody in 1% (w/v) BSA/TBS-T. Phospho-FAK: (1) 1:300 dilution mouse-anti-human p-FAK antibody (Cell Signaling Technology) in 3% (w/v) BSA/TBS-T, (2) 1:5,000 dilution goat-antimouse horseradish-conjugated secondary antibody in 1% (w/v) BSA/TBS-T. Differences in blotting efficiency and protein loading were normalized by using a primary antibody against glyceraldehyde-3-phosphate dehydrogenase (GAPDH, 1:10,000 dilution in 1% (w/v) BSA/TBS-T, at RT for 45 min (Millipore, Schwalbach, Germany) and a secondary horseradish-conjugated goat-anti-mouse antibody (1:10,000 dilution in 1% (w/v) BSA/TBS-T, 40 min at RT).
The integrin binding assay was done to assess the specificity and subtype-selective affinity of L1–L5 and their respective Cy5.5-conjugated ligands by using isolated and purified integrins in cell-free ligand binding assays, as previously published.[59]Table 2 summarizes the used ECM ligands, integrins, and antibodies. In brief, flat-bottom 96-well plates were coated overnight at 4 °C with the natural ECM integrin ligands, vitronectin (for αvβ3-directed ligands), fibronectin (for α5β1-directed ligands), or LAP of TGF-β1 (for αvβ6-directed ligands) (100 μL/well in buffer containing 15 mM Na2CO3, 35 mM NaHCO3, pH 9.6). Subsequently, each well was washed in PBS, 0.01% (v/v) Tween 20, 137 mM NaCl, 2.7 mM KCl, 10 mM Na2HPO4, 2 mM KH2PO4, pH 7.4 (PBS-T), and blocked for unspecific binding events for 1 h at RT in 20 mM Tris–HCl, pH 7.5, 150 mM NaCl, 1 mM CaCl2, 1 mM MgCl2, 1 mM MnCl2, and 1% (w/v) BSA. Meanwhile, dilution series of the different integrin ligands and the internal standards were prepared, ranging from 20 μM to 256 pM in 1:5 dilution steps. […]

[1] = tested on: M21 (αvβ3+), HN (αvβ6+), RKO (α5β1+) cells; experiment: Time-dependent cellular uptake of Cy5.5-labeled ligands in cells overexpressing the targeted integrin; format: cell-based; conditions: state within 30 min, Cy5.5-conjugated ligands, target integrin-expressing cells
Text: For intracellular drug delivery, integrin ligands designed as drug-conjugated vehicles have to be easily and selectively internalized by tumor cells (over)expressing the respective targeted integrin subtype. […] It should be noted here that HN, OV-MZ-6, and RKO cells also express low αvβ3 expression levels.
Figure 7 Cellular uptake of Cy5.5-labeled integrin ligands. […] Nuclei were costained with Hoechst 33342 (blue signal) and cell membranes with CellMask Green (green signal). Merge of stains (yellow signal) indicated colocalization of ligands at the cell membrane. Scale bar: 50 μm.
Microchamber cell culture slides were coated with fibronectin (2 μg/mL), followed by cell seeding at a density of 50,000 cells/well. After 24 h of cultivation, cells were treated with integrin ligands L1-Cy5.5 to L5-Cy5.5 (1 μM in 0.01% (w/v) CaCl2 and 0.1% (w/v) BSA in PBS; 250 μL/well) for 3, 30, 60, or 300 min at 37 °C. The cells were washed in PBS/0.01% (w/v) CaCl2 (6 × 800 μL) and the fluorescence signal intensity recorded using the LSM 700 microscope (Zeiss, Jena, Germany). CellMask Green Plasma Membrane Stain was used to stain the cell membrane; nuclei were stained with Hoechst 33342.

human αvβ3-integrin = biological target: T3, human αvβ3-integrin (Homo sapiens, UniProt P05106+P06756); experiment: ELISA-type solid-phase binding assay: soluble αvβ3 competing for immobilized vitronectin; conditions: competitive ELISA-type assay, referenced to internal standard cilengitide (L2)
T3 construct: purchased R&D 3050-AV-050

Compound | IC50 (human αvβ6-integrin) [nM] | IC50 (human α5β1-integrin) | Endocytosis of Cy5.5-conjugated ligand [1] | IC50 (human αvβ3-integrin) [nM]
C#CCCC(=O)NCCCOc1ccc(C(=O)N[C@H](CC(=O)O)Cc2ccc(OCCCNc3cc(OC)ccn3)cc2)cc1 [L1, (S)-4-(4-(3-((4-Methoxypyridin-2-yl)amino)propoxy)phenyl)-3-(4-(3-(pent-4-ynamido)propoxy)benzamido)butanoic Acid] | 152 ± 60.8 | 73.4 ± 16.6 nM | started within 30 min | 1.1 ± 0.27
C#CCCC(=O)NCCCOc1cc(C)c(C(=O)N[C@@H](CNC(=O)CNC(=O)c2cccc(NC(=N)N)c2)C(=O)O)c(C)c1 [L5, (S)-2-(2,6-Dimethyl-4-(3-(pent-4-ynamido)propoxy)benzamido)-3-(2-(3-guanidinobenzamido)acetamido)propanoic Acid] | > 1000 | 1.2 nM and 1.24 nM |  | > 1000
c(FRGDLAFp(NMe)K) [L3] |  |  | already completed | 
